The results in this text go back to US20080045596A1, “Ep2 Receptor Agonists” (priority 2003, published 2008).

As usually defined, the EC50 is the concentration that produces a half-maximal response.

In assay [1] the test system is human myometrium. As to the kind of experiment: Electrical field stimulation (EFS) induced contractions of human myometrial strips. Here is the method: The following describes an in vitro functional assay, using human myometrial smooth muscle, to determine the affinity of the test compounds at the EP2 receptor in human tissues.
Sections of human myometrium were prepared from samples of surgically removed uterus longitudinal myometrial muscle strips (2 mm wide by 10 mm long) were then cut and suspended between stainless steel hooks in organ chambers containing oxygenated (95% O2/5% CO2) Krebs solution at 37° C. The composition of the Krebs solution was as follows: NaCl (118.2 mM), KCl (4.69 mM), MgSO4.7H2O (1.18 mM), KH2PO4 (1.19 mM), glucose (11.1 mM), NaHCO3 (25.0 mM), CaCl2.6H2O (2.5 mM), indomethacin 3×10^−6M.
Tissues were placed under a tension equivalent to 25 mN and left overnight at room temperature. The following day the tissues were maintained at 37° C., washed and placed under a tension of 15 mN then allowed to equilibrate for a period of at least 30 minutes. Responses were recorded using isometric transducers coupled to an Apple Macintosh computer via a MacLab interface. After 60 minutes, the muscle sections of the human myometrium were stimulated electrically (15 ms pulse width, for 10 s every 100 s at 15V and 0.5-40 Hz) using parallel platinum wire electrodes and a Multistim D330 pulse stimulator. Upon electrical stimulation, the strips of human myometrial smooth muscle responded with a rapid contraction. Once the response to electrical stimulation had stabilised (stimulated responses differed by no more than 10%), the strips were exposed to increasing concentrations of test compounds (1×10^−7 to 1×10^−4M, incubated for at least 15 minutes at each concentration). At the end of the experiment, application of sodium nitroprusside (SNP, a nitric oxide donor that causes smooth muscle relaxation) (1×10^−4M) was used to produce a standard relaxatory response. To determine the affinity of the compounds, the concentration of test compound required to produce half-maximal effects (EC50) was calculated, as was the maximum response (calculated as a percentage of the standard response produced with SNP).

Assay [2] deals with interferon gamma release by lymphocytes. The assay is described as follows: Lymphocyte assay: interferon gamma release. The settings on record: FIG. 11, two donors. The class given is cell-based, human. The source says:
Lymphocytes are mononuclear leukocytes, which participate in specific immune responses to foreign antigens and in the manifestation of auto-immune diseases. T lymphocytes produce IL-2, a key factor for lymphocyte activation and proliferation, in response to antigen stimulation via the CD3-T cell receptor complex and the pathway involved in this response is the NF-AT. […] A lymphocyte assay was designed to model this response and to determine the effect of test compound on IL-2 production by anti-CD3-stimulated T cells isolated from peripheral blood. This assay uses a sub-optimal dose of an anti-CD3 monoclonal antibody (OKT3, 25 ng/ml) immobilised to a 96-well plate to stimulate a T cell response. The level of IL-2 released into the cell culture supernatants was quantified using a standard sandwich ELISA. Similarly, other cytokines such as TNFα and IFN-γ can also be measured in the same assay. […]
Lymphocytes were then seeded to a 96-well plate pre-coated with anti-CD3 monoclonal antibody (OKT3) at 25 ng/ml and immediately, the test compounds (Peak 1, mixture 1 acid; Peak 1, mixture 2 acid; AH-13205 racemate; PGE2) in appropriate dilutions were added to corresponding wells according to the experimental design. […] The levels of IFN-γ was assessed by using the ProteoPlex 16 well human cytokine array assay kit according to the manufacturer's instruction.

Assay [3] concerns TNFα production by LPS-stimulated monocytes. As to the kind of experiment: Monocyte assay: LPS-induced TNFα secretion. The class given is cell-based, human. The conditions noted are these: Table 11/FIG. 14, mean of three donors, LPS 100 ng/ml, 24 h. The source says: Monocytes are peripheral mononuclear phagocytes that participate in inflammatory responses. TNFα production by monocytes plays an important role in inflammatory responses and can cause considerable tissue damage if the level remained unchecked. Inhibition of TNFα secretion by activated monocytes may provide an attractive therapy for the treatment of inflammatory conditions.
A 96 well in vitro assay was established to determine the effects of test compounds on LPS-induced TNFα secretion by human peripheral blood monocytes. The level of TNFα in assay supernatants was quantified using a standard sandwich ELISA.
Human peripheral blood mononuclear cells from healthy volunteers were isolated from whole blood by Ficoll-Hypaque density centrifugation and adherence to plastic. The non-adherent lymphocyte fraction was used to set up the lymphocyte assay and the adherent monocytes were then recovered by scraping and subsequently used in the monocyte assay.
For the monocyte assay, the cells were plated onto 96-well plates and pre-treated for 1 hour at 37° C./5% CO2 with the test compound (Peak 1, mixture 1 acid; Peak 1, mixture 2 acid; AH-13205 racemate), followed by the addition of LPS (100 ng/ml) to initiate the reaction. The plate was incubated for 24 hours and supernatants were recovered for the measurement of TNFα production by ELISA.

Assay [4] addresses T1, human EP4 receptor (Homo sapiens, UniProt P35408).
T1 construct: expressed in transfected cells
The assay is described as follows: Radioligand ([3H]PGE2) competition displacement binding, human EP4 receptor membranes. The settings on record: human EP4, [3H]PGE2 displacement. Here is the method:
(§1) Membranes were prepared from cells stably transfected with human EP receptor cDNA. In brief, cells were cultured to confluency, scraped from culture flasks, and centrifuged (800 g, 8 minutes, 4° C.). Cells were twice washed in ice cold homogenisation buffer containing 10 mM Tris-HCl, 1 mM EDTA.2Na, 250 mM sucrose, 1 mM PMSF, 0.3 mM indomethacin, pH 7.4, homogenised and re-centrifuged as before. The supernatant was stored on ice and pellets re-homogenised and re-spun. Supernatants were pooled and centrifuged at 40000 g, 10 minutes, 4° C. Resultant membrane pellets were stored at −80° C. until use.
(§2) For assay, membranes expressing human EP4, EP3, EP2 or EP1 receptors were incubated in Millipore (MHVBN45) plates containing assay buffer, radiolabelled [^3H]PGE2 and 0.1 to 10 000 nM concentrations of compounds. Incubations were performed at suitable temperatures and for suitable times to allow equilibrium to be reached. Non-specific binding was determined in the presence of 10 uM PGE2. Bound and free radiolabel was separated by vacuum manifold filtration using appropriate wash buffers, and bound radiolabel was determined by scintillation counting. Constituents of each of the buffers are included in table 4 below.
(§3) The affinity or pKi of each compound for each receptor was calculated from the concentration causing 50% radioligand displacement (IC50) using the Cheng-Prusoff equation: […]
(§4) This approach follows that set out in Kenakin, T. P., Pharmacologic analysis of drug receptor interaction. Raven Press, New York, 2nd edition.

Assay [5] has as its target T2, human EP2 receptor (Homo sapiens, UniProt P43116).
T2 construct: expressed in transfected cells; host or cells: HEK cells (HEK-EP2)
The assay is described as follows: Radioligand ([3H]PGE2) competition displacement binding, human EP2 receptor membranes. The conditions noted are these: for pKi EP2: human EP2, [3H]PGE2 displacement, Cheng-Prusoff, mean of 4 experiments. Here is the method:
as §1, §2, §3, §4

The target of assay [6] is T2, human EP2 receptor. As to the kind of experiment: cAMP production in HEK cells stably expressing the human EP2 receptor. Format: cell-based. The settings on record: 15 min stimulation, 4 experiments, logarithm of EC50. Here is the method:
The following describes an in vitro assay to determine the effect of compounds on cyclase production, that is, to determine their functional efficacy at the EP2 receptor.
HEK cells stably expressing the human EP2 receptor were used for these assays. HEK-EP2 cells were cultured in 96-well, poly-L-lysine coated plates at a density of 50,000 cells/well, and grown to confluence in humidified […]/5% CO2 at 37° C. Culture medium was DMEM supplemented with 10% foetal bovine serum, 100 U/ml penicillin, […] streptomycin, 2.5 μg/ml fungizone, 2 mM glutamine, 250 μg/ml geneticin and 200 μg/ml zeocin.
On reaching confluence, culture media was rinsed off using DMEM with no additions, before 175 μl assay buffer (DMEM containing 1 mM 3-isobutyl-1-methylxanthine and 3 μM indomethacin) was added to each well. This was allowed to incubate for 1 hr before the cells were stimulated with the test compounds (in triplicate) at final concentrations of 10^−9M to 10^−5M for 15 minutes. The assay was terminated by the addition of 25 μl 1M hydrochloric acid. Plates were then frozen for a minimum of 12 hours or until required for radioligand displacement assay.
Plates were thawed quickly at 37° C., and neutralised with 25 μl 1M sodium hydroxide. 30 μl of supernatant was transferred to 96-well Millipore (MAFNOB) plates coated with 0.1% Polyethylenimine. These supernatants were diluted by addition of 90 μl cAMP assay buffer (50 mM Tris, 5 mM EDTA, pH 7.0). A cAMP standard curve (10^−11M to 10^−5M) was constructed. 15 μl of 3′:5′-cAMP-dependent protein kinase (final concentration 8 μg/well), and 15 μl [^3H]-cAMP (final concentration 2 nM/well) were added to each well.
Plates were incubated on ice for 2 hours, before bound and free radiolabel were separated by vacuum filtration harvesting on the Millipore manifold, using ice cold water as the termination buffer. […]
Radioactivity was determined using the Microbeta Trilux scintillation counter. cAMP accumulation was determined from the standard curve, and the values plotted as pmoles cAMP/well.
In general terms: cAMP levels reflect the balance of adenylyl cyclase and phosphodiesterase activity.

In assay [7] the target is T3, human EP3 receptor (Homo sapiens, UniProt P43115).
T3 construct: expressed in transfected cells
T3 sequence (P43115 1-390): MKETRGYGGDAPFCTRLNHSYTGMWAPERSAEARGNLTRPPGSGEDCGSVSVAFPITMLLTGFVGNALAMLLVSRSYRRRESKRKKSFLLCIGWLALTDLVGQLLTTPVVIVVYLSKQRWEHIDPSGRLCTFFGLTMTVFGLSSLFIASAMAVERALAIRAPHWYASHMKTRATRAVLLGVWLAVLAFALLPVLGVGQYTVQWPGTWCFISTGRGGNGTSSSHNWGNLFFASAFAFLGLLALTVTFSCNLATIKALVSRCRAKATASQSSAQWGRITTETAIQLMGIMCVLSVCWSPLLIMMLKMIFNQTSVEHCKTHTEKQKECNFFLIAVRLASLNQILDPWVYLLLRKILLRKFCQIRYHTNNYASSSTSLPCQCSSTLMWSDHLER
The assay is described as follows: Radioligand ([3H]PGE2) competition displacement binding, human EP3 receptor membranes. The conditions noted are these: human EP3, [3H]PGE2 displacement. Here is the method: as §1, §2, §3, §4

Each structure is given as a SMILES string. Like-named read-outs stand apart in the source and are kept apart here.

T1 sequence (P35408 whole entry): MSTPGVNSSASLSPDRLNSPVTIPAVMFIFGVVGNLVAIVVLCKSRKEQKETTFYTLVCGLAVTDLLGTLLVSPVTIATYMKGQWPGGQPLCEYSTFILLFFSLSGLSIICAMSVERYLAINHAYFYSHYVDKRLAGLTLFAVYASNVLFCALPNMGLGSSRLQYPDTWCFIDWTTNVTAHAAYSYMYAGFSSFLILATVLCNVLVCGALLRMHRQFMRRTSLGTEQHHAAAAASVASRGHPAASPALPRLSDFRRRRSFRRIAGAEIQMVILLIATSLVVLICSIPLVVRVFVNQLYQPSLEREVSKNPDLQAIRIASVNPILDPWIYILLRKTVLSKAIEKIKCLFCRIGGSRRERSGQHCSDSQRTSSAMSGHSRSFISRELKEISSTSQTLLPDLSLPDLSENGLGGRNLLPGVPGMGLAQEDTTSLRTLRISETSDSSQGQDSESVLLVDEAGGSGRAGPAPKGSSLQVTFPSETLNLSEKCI
T2 sequence (P43116 whole entry): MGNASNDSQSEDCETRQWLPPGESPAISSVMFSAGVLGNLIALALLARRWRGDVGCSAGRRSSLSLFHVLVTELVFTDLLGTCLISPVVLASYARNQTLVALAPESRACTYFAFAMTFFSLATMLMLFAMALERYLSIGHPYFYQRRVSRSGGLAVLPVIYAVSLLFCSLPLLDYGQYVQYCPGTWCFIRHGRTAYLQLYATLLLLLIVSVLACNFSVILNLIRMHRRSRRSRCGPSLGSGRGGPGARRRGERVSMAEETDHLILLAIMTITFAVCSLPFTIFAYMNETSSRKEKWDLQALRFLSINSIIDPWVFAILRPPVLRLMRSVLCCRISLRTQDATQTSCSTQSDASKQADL

As to `CCCCC[C@H](O)c1ccc([C@H]2CCC(=O)[C@@H]2CCCCCCC(=O)O)cc1` (single isomer, unassigned) [Peak 1, Mixture 1 acid], in assay [1], the “effect on EFS-evoked contractions (words)” value (“effect … (words)” below) was “concentration-dependent inhibition”. Also, the “effect on interferon gamma release” value in assay [2] is on record as “concentration-dependently inhibit interferon gamma release”.
Take `CCCCC[C@@H](O)c1ccc([C@H]2CCC(=O)[C@@H]2CCCCCCC(=O)O)cc1` (single isomer, unassigned; peak 1) [Peak 1, Mixture 2 acid]: the “Mean Log (EC50), inhibition of TNFα production by LPS-stimulated monocytes” value in assay [3] (logarithm of EC50) was −5.172. The EC50 in assay [3] (read-out: Mean EC50, inhibition of TNFα production by LPS-stimulated monocytes) came out at 6.73 µM. Also, in assay [1], the “effect … (words)” value is “concentration-dependent inhibition” and the “maximum inhibition of EFS-induced contractions” value worked out at 57±2%. In addition, in assay [1] (1×10^-7 to 1×10^-4 M), the “pEC50, inhibition of EFS-evoked response” value was found to be 5.3±0.1. For the same compound, the “pKi EP4” value in assay [4] amounted to 5.1. Moreover, in assay [5] (from Table 5 pKi values, EP2 versus other EP receptors), the “selectivity for EP2 among the stereoisomers” value is on record as “most selective”. In addition, the “pKi EP2” value in assay [5] is listed as 6.9. For the same compound, the “Mean Log (EC50), cAMP production” value in assay [6] is −7.25. Further, the “pKi EP3” value in assay [7] was determined as 4.8.
`CCCCCC(O)c1ccc(C2CCC(=O)C2CCCCCCC(=O)O)cc1` (racemic) [AH13205, (±)-trans-2-[4-(1-hydroxyhexyl)phenyl]-5-oxo-cyclopentaneheptanoic acid, reference compound]: the “effect … (words)” value is listed as “concentration-dependent inhibition” in assay [1] and “inhibit electrically-induced contractions” in assay [1] (listed as AH-13205).
Consider `CCCCC[C@H](O)c1ccc([C@@H]2CCC(=O)[C@H]2CCCCCCC(=O)O)cc1` (single isomer, unassigned; peak 2) [Peak 2, Mixture 1 acid], for which, in assay [4], the “pKi EP4” value is given as 4.5. Also, in assay [5], the “pKi EP2” value came out at 5.8. Further, the “Mean Log (EC50), cAMP production” value in assay [6] was −6.49. Further, the “pKi EP3” value in assay [7] came to 4.8.
`CCCCC[C@@H](O)c1ccc([C@@H]2CCC(=O)[C@H]2CCCCCCC(=O)O)cc1` (single isomer, unassigned; peak 2) [Peak 2, Mixture 2 acid]: the “pKi EP4” value in assay [4] is given as 4.8. The “pKi EP2” value in assay [5] was 6.3. In assay [6], the “Mean Log (EC50), cAMP production” value is reported as −6.39. In addition, in assay [7], the “pKi EP3” value amounted to 4.7.
In the case of `CC(C)(C)NCC(O)c1cc(O)cc(O)c1` (centres unmarked) [terbutaline, reference compound], the “effect … (words)” value in assay [1] is “no significant inhibitory effect”.
